The text below walks through data of patent publication US10806726B2, “Methods of using indazole-3-carb oxamides and their use as Wnt/B-catenin signaling pathway inhibitors” (Samumed, LLC, priority 2016, dated 2020).

The subject of test [1] is Wnt-responsive promoter driving firefly luciferase in SW480 cells. Put plainly: Wnt reporter (SP5 promoter-luciferase) screening assay in SW480 cells. It is filed as cell-based. The settings on record: Homo sapiens, 24-40 h, top concentration ten micromolar. The source says:
Another screening assay for Wnt activity is described as follows. Reporter cell lines can be generated by stably transducing cells of cancer cell lines (e.g., colon cancer) with a lentiviral construct that include a Wnt-responsive promoter driving expression of the firefly luciferase gene.
Lentiviral constructs can be made in which the SP5 promoter, a promoter having eight TCF/LEF binding sites derived from the SP5 promoter, is linked upstream of the firefly luciferase gene. The lentiviral constructs can also include a hygromycin resistance gene as a selectable marker. The SP5 promoter construct can be used to transduce SW480 cells, a colon cancer cell line having a mutated APC gene that generates a truncated APC protein, leading to de-regulated accumulation of β-catenin.
Cultured SW480 cells bearing a reporter construct can be distributed at approximately 10,000 cells per well into 96 well or 384 well plates. Compounds from a small molecule compound library can then be added to the wells in half-log dilutions using a ten micromolar top concentration. A series of control wells for each cell type receive only buffer and compound solvent. Twenty-four to forty hours after the addition of compound, reporter activity for luciferase can be assayed, for example, by addition of the BrightGlo luminescence reagent (Promega) and the Victor3 plate reader (Perkin Elmer). Readings can be normalized to DMSO only treated cells, and normalized activities can then be used in the EC50 calculations.

Test [2] deals with primary human mesenchymal stem cells (hMSCs). Put plainly: Tenocyte differentiation screening in hMSCs (SCXA-positive cells, 4 days). It counts as cell-based. The following applies: 96 h, fold change over DMSO. The source says:
Representative compounds were screened using primary human mesenchymal stem cells (hMSCs) to determine their ability to induce tenocyte differentiation (process by which tendon is developed).
Primary human mesenchymal stem cells (hMSCs) were purchased from Lonza (Walkersville, Md.) and expanded in Mesenchymal Stem Cell Growth Media (Lonza). Cells between passage 3 and 6 were used for the experiments.
Cells were fixed using 4% formaldehyde (Electron Microscopy Sciences), and stained with anti-Sclerasis (anti-SCXA) antibodies (Abgent, San Diego, Calif.) [Webb S., et. al., Retinoic acid receptor signaling preserves tendon stem cell characteristics and prevents spontaneous differentiation in vitro, Stem Cell Research & Therapy 2016, 7:45] overnight at 4° C. […] Number of cells positive for SCXA in each well was quantified using the Celllnsight CX5. Data was normalized to the average of 12 DMSO treated wells on the same plate using Dotmatics Studies module. The normalized averages (fold change over DMSO) of 3 replicate wells for each compound concentration were calculated. Due to solubility limitations of some of the compounds, values for higher doses were manually corrected and curve fitting and EC50 determinations were performed using Dotmatics Studies.
EC50 for each compound is reported.

Where only a bound is given, the exact number is not on record here.

Broadly, the EC50 is the concentration that produces a half-maximal response. Read a low EC50 as a more potent agent. For the compound `O=C(Nc1cccnc1)c1n[nH]c2ccc(-c3cncc(CN4CCOCC4)c3)cc12` [compound 64, 5-(5-(Morpholinomethyl)pyridin-3-yl)-N-(pyridin-3-yl)-1H-indazole-3-carboxamide], the EC50 in test [1] came out at 6 nM; in test [2], 7660 nM.

`O=C(Nc1cccnc1)c1n[nH]c2ccc(-c3cncc(N4CCCC4)c3)cc12` [compound 189, N-(Pyridin-3-yl)-5-(5-(pyrrolidin-1-yl)pyridin-3-yl)-1H-indazole-3-carboxamide]: the EC50 was 85 nM in test [1] and over 100000 nM in test [2].

For the compound `CN1CCN(Cc2cncc(-c3ccc4[nH]nc(C(=O)Nc5cccnc5)c4c3)c2)CC1` [compound 61, 5-(5-((4-Methylpiperazin-1-yl)methyl)pyridin-3-yl)-N-(pyridin-3-yl)-1H-indazole-3-carboxamide], the EC50 in test [1] was found to be 239 nM; in test [2], 12300 nM.

With `O=C(Nc1cccnc1)c1n[nH]c2ccc(-c3ccc(N4CCCC4)nc3)cc12` [compound 51, N-(Pyridin-3-yl)-5-(6-(pyrrolidin-1-yl)pyridin-3-yl)-1H-indazole-3-carboxamide], the EC50 in test [1] was 26 nM; in test [2], over 100000 nM.

For the compound `O=C(Nc1cnccc1C(F)(F)F)c1n[nH]c2ccc(-c3cncc(CN4CCCC4)c3)cc12` [compound 57, 5-(5-(Pyrrolidin-1-ylmethyl)pyridin-3-yl)-N-(4-(trifluoromethyl)pyridin-3-yl)-1H-indazole-3-carboxamide], the EC50 in test [1] was at least 10000 nM; in test [2], over 100000 nM.

For `O=C(Nc1cccnc1)c1n[nH]c2ccc(-c3cccc(CN4CCCC4)c3)cc12` [compound 49, N-(Pyridin-3-yl)-5-(3-(pyrrolidin-1-ylmethyl)phenyl)-1H-indazole-3-carboxamide], the results for the EC50 in test [1] and in test [2] were 57 nM and over 100000 nM, respectively.

Consider `O=C(Nc1cnccc1NC(=O)C1CC1)c1n[nH]c2ccc(-c3cccnc3)cc12` [compound 58, N-(4-(Cyclopropanecarboxamido)pyridin-3-yl)-5-(pyridin-3-yl)-1H-indazole-3-carboxamide], for which the EC50 in test [1] was 71 nM; in test [2] it was over 100000 nM.

As for `O=C(Nc1cccnc1)c1n[nH]c2ccc(-c3cccnc3)cc12` [compound 4, N,5-di(pyridin-3-yl)-1H-indazole-3-carboxamide], the EC50 in test [1] came out at 160 nM; in test [2], 4550 nM.

Regarding `O=C(Nc1ccc(Oc2cccc(F)c2)nc1)c1n[nH]c2ccc(-c3cccnc3)cc12` [compound 19, N-(6-(3-Fluorophenoxy)pyridin-3-yl)-5-(pyridin-3-yl)-1H-indazole-3-carboxamide], the figures for the EC50 in test [1] and in test [2] were 107 nM and over 100000 nM, respectively.

`C[C@@H]1CCC[C@H](C)N1Cc1cncc(-c2ccc3[nH]nc(C(=O)Nc4cccnc4)c3c2)c1` [compound 84, 5-(5-(((2R,6 S)-2,6-Dimethylpiperidin-1-yl)methyl)pyridin-3-yl)-N-(pyridin-3-yl)-1H-indazole-3-carboxamide]: the EC50 in test [1] is 822 to 898 nM; in test [2] it was over 100000 nM.

Regarding `O=C(Nc1ccc(-c2cccc(F)c2)nc1)c1n[nH]c2ccc(-c3cncc(CN4CCCCC4)c3)cc12` [compound 72, N-(6-(3-Fluorophenyl)pyridin-3-yl)-5-(5-(piperidin-1-ylmethyl)pyridin-3-yl)-1H-indazole-3-carboxamide], the values for the EC50 in test [1] and in test [2] were 215 nM and over 100000 nM, respectively.

As to `O=C(Nc1cnccn1)c1n[nH]c2ccc(-c3cncc(CN4CCCCC4)c3)cc12` [compound 81, 5-(5-(Piperidin-1-ylmethyl)pyridin-3-yl)-N-(pyrazin-2-yl)-1H-indazole-3-carboxamide], the EC50 was 77 to 142 nM in test [1] and over 100000 nM in test [2].

With `O=C(Nc1ccc(-c2ccc(F)cc2)nc1)c1n[nH]c2ccc(-c3cncc(CN4CCCCC4)c3)cc12` [compound 73, N-(6-(4-Fluorophenyl)pyridin-3-yl)-5-(5-(piperidin-1-ylmethyl)pyridin-3-yl)-1H-indazole-3-carboxamide], the EC50 in test [1] is 322 nM; in test [2] it was over 100000 nM.

As for `O=C(Nc1ccc(N2CCC(O)CC2)nc1)c1n[nH]c2ccc(-c3cncc(CN4CCCCC4)c3)cc12` [compound 169, N-(6-(4-Hydroxypiperidin-1-yl)pyridin-3-yl)-5-(5-(piperidin-1-ylmethyl)pyridin-3-yl)-1H-indazole-3-carboxamide], the EC50 came out at 49 nM in test [1] and 4900 nM in test [2].

On to `O=C(Nc1cccnc1)c1n[nH]c2ccc(-c3cncc(CN4CCC(F)(F)C4)c3)cc12` [compound 188, 5-(5-((3,3-Difluoropyrrolidin-1-yl)methyl)pyridin-3-yl)-N-(pyridin-3-yl)-1H-indazole-3-carboxamide], for which the EC50 in test [1] turned out to be 9 nM; in test [2] it was 1210 nM.

On to `O=C(Nc1ccc(O)nc1)c1n[nH]c2ccc(-c3cncc(CN4CCCCC4)c3)cc12` [compound 178, N-(6-Hydroxypyridin-3-yl)-5-(5-(piperidin-1-ylmethyl)pyridin-3-yl)-1H-indazole-3-carboxamide], for which the EC50 is 297 nM in test [1] and over 100000 nM in test [2].

For `CN1CCN(c2cncc(-c3ccc4[nH]nc(C(=O)Nc5ccc(N6CCCC6)nc5)c4c3)c2)CC1` [compound 186, 5-(5-(4-Methylpiperazin-1-yl)pyridin-3-yl)-N-(6-(pyrrolidin-1-yl)pyridin-3-yl)-1H-indazole-3-carboxamide], the EC50 in test [1] was 460 nM; in test [2], over 100000 nM.

As to `CN1CCN(c2ccc(NC(=O)c3n[nH]c4ccc(-c5cncc(CN6CCCCC6)c5)cc34)cn2)CC1` [compound 70, N-(6-(4-Methylpiperazin-1-yl)pyridin-3-yl)-5-(5-(piperidin-1-ylmethyl)pyridin-3-yl)-1H-indazole-3-carboxamide], the EC50 in test [1] was found to be 41 nM; in test [2], 10800 nM.

For the compound `O=C(Nc1ccc(C(F)(F)F)nc1)c1n[nH]c2ccc(-c3cncc(CN4CCOCC4)c3)cc12` [compound 68, 5-(5-(Morpholinomethyl)pyridin-3-yl)-N-(6-(trifluoromethyl)pyridin-3-yl)-1H-indazole-3-carboxamide], the EC50 amounted to 48 nM in test [1] and 4610 nM in test [2].

Consider `CCOc1ccc(NC(=O)c2n[nH]c3ccc(-c4cncc(CN5CCCCC5)c4)cc23)cn1` [compound 45, N-(6-Ethoxypyridin-3-yl)-5-(5-(piperidin-1-ylmethyl)pyridin-3-yl)-1H-indazole-3-carboxamide], for which the values for the EC50 in test [1] and in test [2] were 110 nM and 9750 nM, respectively.

In the case of `CN1CCN(Cc2cc(F)cc(-c3ccc4[nH]nc(C(=O)Nc5cnccc5C(F)(F)F)c4c3)c2)CC1` [compound 60, 5-(3-Fluoro-5-((4-methylpiperazin-1-yl)methyl)phenyl)-N-(4-(trifluoromethyl)pyridin-3-yl)-1H-indazole-3-carboxamide], the figures for the EC50 in test [1] and in test [2] were at least 10000 nM and over 100000 nM, respectively.

In the case of `O=C(Nc1cncc(F)c1)c1n[nH]c2ccc(-c3cccnc3)cc12` [compound 23, N-(5-Fluoropyridin-3-yl)-5-(pyridin-3-yl)-1H-indazole-3-carboxamide], the EC50 in test [1] is 120 nM; in test [2], over 100000 nM.

On to `O=C(NC1CCCCC1)c1n[nH]c2ccc(-c3cncc(CN4CCCCC4)c3)cc12` [compound 77, N-Cyclohexyl-5-(5-(piperidin-1-ylmethyl)pyridin-3-yl)-1H-indazole-3-carboxamide], for which the EC50 in test [1] was 2650 nM; in test [2] it was 6080 nM.

Turning to `O=C(Nc1ccc(C(F)(F)F)nc1)c1n[nH]c2ccc(-c3cncc(CN4CCCCC4)c3)cc12` [compound 63, 5-(5-(Piperidin-1-ylmethyl)pyridin-3-yl)-N-(6-(trifluoromethyl)pyridin-3-yl)-1H-indazole-3-carboxamide], the EC50 in test [1] is 100 nM; in test [2], 10200 nM.

In the case of `N#Cc1ccc(NC(=O)c2n[nH]c3ccc(-c4cncc(CN5CCCC5)c4)cc23)cn1` [compound 52, N-(6-Cyanopyridin-3-yl)-5-(5-(pyrrolidin-1-ylmethyl)pyridin-3-yl)-1H-indazole-3-carboxamide], the EC50 in test [1] is 57 nM; in test [2], over 100000 nM.

In the case of `O=C(Nc1cccc(F)c1)c1n[nH]c2ccc(-c3cncc(CN4CCCCC4)c3)cc12` [compound 162, N-(3-Fluorophenyl)-5-(5-(piperidin-1-ylmethyl)pyridin-3-yl)-1H-indazole-3-carboxamide], the EC50 was 426 nM in test [1] and over 100000 nM in test [2].
